Results published in patent publication US20250230193A1, “CYCLIC COMPOUND HAVING SELECTIVE KRAS INHIBITORY EFFECT ON HRAS AND NRAS” (CHUGAI SEIYAKU KABUSHIKI KAISHA, priority 2022, published 2025).

Assays:
[1] = molecular target: GDP-bound NRAS wild-type protein (Homo sapiens, UniProt P01111); experiment: Binding to NRAS by surface plasmon resonance (SPR), Single Cycle Kinetics
[2] = molecular target: GDP-bound HRAS wild-type protein (Homo sapiens, UniProt P01112); experiment: Binding to HRAS by surface plasmon resonance (SPR), Single Cycle Kinetics
[3] = KD ratio, GDP-bound NRAS wild-type vs GDP-bound KRAS wild-type, SPR
[4] = KD ratio, GDP-bound HRAS wild-type vs GDP-bound KRAS wild-type, SPR
[5] = SPR, GDP-bound NRAS wild-type vs GDP-bound KRAS wild-type
[6] = SPR, GDP-bound HRAS wild-type vs GDP-bound KRAS wild-type
[7] = SPR, GDP-bound wild-type proteins

Chain of GDP-bound HRAS wild-type protein (P01112 whole entry): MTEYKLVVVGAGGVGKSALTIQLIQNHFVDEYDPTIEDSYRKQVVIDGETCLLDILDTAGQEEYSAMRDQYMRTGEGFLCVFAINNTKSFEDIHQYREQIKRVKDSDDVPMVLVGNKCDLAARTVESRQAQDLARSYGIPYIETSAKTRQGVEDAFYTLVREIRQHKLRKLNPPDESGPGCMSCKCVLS
Chain of GDP-bound NRAS wild-type protein (P01111 whole entry): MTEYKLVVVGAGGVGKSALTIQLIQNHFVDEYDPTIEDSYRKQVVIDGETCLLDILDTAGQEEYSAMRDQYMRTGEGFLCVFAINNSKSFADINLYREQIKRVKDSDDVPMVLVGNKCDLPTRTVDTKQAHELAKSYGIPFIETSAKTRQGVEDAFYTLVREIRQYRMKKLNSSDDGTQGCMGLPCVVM

With `CC[C@H](C)[C@@H]1NC(=O)[C@H](CC(C)C)N(C)C(=O)C[C@@H](C(=O)N2CCOCC2)N(C)C(=O)[C@H](C2CCCC2)N(C)C(=O)C2(CCC2)NC(=O)[C@@H]2C[C@@H](OCC3CC3)CN2C(=O)[C@H](CCc2cc(F)c(C(F)(F)F)c(F)c2)NC(=O)CN(C)C(=O)[C@H](Cc2ccc(C(F)(F)F)cc2)N2CCCC[C@@H](C2=O)N(C)C(=O)CN(C)C1=O` [PP1014] the “NRAS/KRAS (ratio of KD value with respect to NRAS to KD value with respect to KRAS)” value [1, 3] was “C (A compound having a KD ratio of 0.1 or more and less than 3 is denoted as C)” and the “HRAS/KRAS (ratio of KD value with respect to HRAS to KD value with respect to KRAS)” value [2, 4] was “C (A compound having a KD ratio of 0.1 or more and less than 3 is denoted as C)”.

For `CCO[C@@H]1C[C@H]2C(=O)NC3(CCC3)C(=O)N(C)[C@@H](C3CCCC3)C(=O)N(C)[C@H](C(=O)N(C)C)CC(=O)N(C)[C@@H](Cc3cccnc3)C(=O)N[C@@H]([C@@H](C)CC)C(=O)N(C)CC(=O)N(C)[C@H]3CCCCCN(C3=O)[C@@H](Cc3ccc(F)cc3)C(=O)N(C)CC(=O)N[C@@H](CCc3cc(F)c(C(F)(F)F)c(F)c3)C(=O)N2C1` [PP1196], the “NRAS/KRAS (ratio of KD value with respect to NRAS to KD value with respect to KRAS)” value [1, 3] was “B (a compound having 3 or more and less than 10 is denoted as B)” and the “HRAS/KRAS (ratio of KD value with respect to HRAS to KD value with respect to KRAS)” value [2, 4] was “B (a compound having 3 or more and less than 10 is denoted as B)”.

For `CCC[C@H]1C(=O)N[C@@H]([C@@H](C)CC)C(=O)N(C)CC(=O)N(C)[C@H]2C/C=C\CCN(C2=O)[C@@H](Cc2ccc(C)cc2)C(=O)N(C)CC(=O)N[C@@H](CCc2ccc(Cl)c(Cl)c2)C(=O)N2CCCCC[C@H]2C(=O)NC2(CC(C)(C)C2)C(=O)N(C)[C@@H](C(CC)CC)C(=O)N(C)[C@H](C(=O)N(C)C)CC(=O)N1C` [PP2962], the “NRAS/KRAS (ratio of KD value with respect to GDP-bound NRAS wild-type protein to KD value with respect to KRAS)” value ([1]; class symbols) was “AA (a compound having 20 or more is denoted as AA)” and the “HRAS/KRAS (ratio of KD value with respect to GDP-bound HRAS wild-type protein to KD value with respect to KRAS)” value ([2]; class symbols) was “A (a compound having 10 or more and less than 20 is denoted as A)”.

`C=CC[C@H]1C(=O)N[C@@H]([C@@H](C)CC)C(=O)N(C)CC(=O)N(C)[C@H]2CCCCCN(C2=O)[C@@H](Cc2ccc(C(F)(F)F)cc2)C(=O)N(C)CC(=O)N[C@@H](CCc2cc(F)c(C(F)(F)F)c(F)c2)C(=O)N2C[C@H](OCC)C[C@H]2C(=O)NC2(CCC2)C(=O)N(C)[C@@H](C2CCCC2)C(=O)N(C)[C@H](C(=O)N(C)C)CC(=O)N1C` [PP0665] was tested, and the “NRAS/KRAS (ratio of KD value with respect to GDP-bound NRAS wild-type protein to KD value with respect to KRAS)” value ([1]; SPR) was “B (a compound having 3 or more and less than 10 is denoted as B)” and the “HRAS/KRAS (ratio of KD value with respect to GDP-bound HRAS wild-type protein to KD value with respect to KRAS)” value ([2]; SPR) was “B (a compound having 3 or more and less than 10 is denoted as B)”.

With `CCO[C@@H]1C[C@H]2C(=O)NC3(CC(C)(C)C3)C(=O)N(C)[C@@H](C(CC)CC)C(=O)N(C)[C@H](C(=O)N3CCCC3)CC(=O)N(C)[C@@H](COC)C(=O)N[C@@H]([C@@H](C)CC)C(=O)N(C)CC(=O)N(C)[C@H]3C/C=C\CCN(C3=O)[C@@H](Cc3ccc(C(F)(F)F)cc3)C(=O)N(C)CC(=O)N[C@@H](CCc3ccc(C(F)(F)F)c(Cl)c3)C(=O)N2C1` [PP2128] the “NRAS/KRAS (ratio of KD value with respect to NRAS to KD value with respect to KRAS)” value [1, 5] was “AA (a compound having 20 or more is denoted as AA)” and the “HRAS/KRAS (ratio of KD value with respect to HRAS to KD value with respect to KRAS)” value [2, 6] was “A (a compound having 10 or more and less than 20 is denoted as A)”.

With `CCCOC[C@H]1C(=O)N[C@@H]([C@@H](C)CC)C(=O)N(C2CC2)CC(=O)N(C)[C@H]2C/C=C\CCN(C2=O)[C@@H](CC2CCC(F)(F)CC2)C(=O)N(C)CC(=O)N[C@@H](CCc2ccc(C(F)(F)F)c(OC)c2)C(=O)N2C[C@H](OCC)C[C@H]2C(=O)N(C)C2(CCC2)C(=O)N(C)[C@@H](C2CCCC2)C(=O)N(C)[C@H](C(=O)N(C)C)CC(=O)N1C` [PP2354] the “NRAS/KRAS (ratio of KD value with respect to NRAS to KD value with respect to KRAS)” value [1, 5] was “A (a compound having 10 or more and less than 20 is denoted as A)” and the “HRAS/KRAS (ratio of KD value with respect to HRAS to KD value with respect to KRAS)” value [2, 6] was “A (a compound having 10 or more and less than 20 is denoted as A)”.

For `CC[C@H](C)[C@@H]1NC(=O)[C@H](CC(C)C)N(C)C(=O)C[C@@H](C(=O)N2CCOCC2)N(C)C(=O)[C@H](C2CCCC2)N(C)C(=O)C2(CCCC2)NC(=O)[C@@H]2CCCN2C(=O)[C@H](CCc2cc(F)c(C(F)(F)F)c(F)c2)NC(=O)CN(C)C(=O)[C@H](Cc2ccc(C(F)(F)F)cc2)N2CCCC[C@@H](C2=O)N(C)C(=O)CNC1=O` [PP0542], the “NRAS/KRAS (ratio of KD value with respect to GDP-bound NRAS wild-type protein to KD value with respect to KRAS)” value ([1]; SPR) was “B (a compound having 3 or more and less than 10 is denoted as B)” and the “HRAS/KRAS (ratio of KD value with respect to GDP-bound HRAS wild-type protein to KD value with respect to KRAS)” value ([2]; SPR) was “B (a compound having 3 or more and less than 10 is denoted as B)”.

For `CCO[C@@H]1C[C@H]2C(=O)NC3(CCC3)C(=O)N(C)[C@@H](C(CC)CC)C(=O)N(C)[C@H](C(=O)N3CCCCC3)CC(=O)N(C)[C@H]3CCCC/C=C/c4ccc(cc4)C[C@@H](C(=O)N(C)CC(=O)N[C@@H](CCc4ccc(Cl)c(Cl)c4)C(=O)N2C1)N1CC/C=C\C[C@@H](C1=O)N(C)C(=O)CN(C)C(=O)[C@H]([C@@H](C)CC)NC3=O` [PP3046], the “NRAS/KRAS (ratio of KD value with respect to GDP-bound NRAS wild-type protein to KD value with respect to KRAS)” value [1, 7] was “AA (a compound having 20 or more is denoted as AA)” and the “HRAS/KRAS (ratio of KD value with respect to GDP-bound HRAS wild-type protein to KD value with respect to KRAS)” value [2, 7] was “A (a compound having 10 or more and less than 20 is denoted as A)”.

`CCC[C@H]1C(=O)N[C@@H](C2CCCC2)C(=O)N(C)CC(=O)N(C)[C@H]2C/C=C\CCN(C2=O)[C@@H](Cc2ccc(C)cc2)C(=O)N(C)CC(=O)N[C@@H](CCc2cc(F)c(C(F)(F)F)c(F)c2)C(=O)N2C[C@H](OCC)C[C@H]2C(=O)NC2(CC(C)(C)C2)C(=O)N(C)[C@@H](C2CCCC2)C(=O)N(C)[C@H](C(=O)N(C)C)CC(=O)N1C` [PP2988] was tested, and the “NRAS/KRAS (ratio of KD value with respect to GDP-bound NRAS wild-type protein to KD value with respect to KRAS)” value [1, 7] was “B (a compound having 3 or more and less than 10 is denoted as B)” and the “HRAS/KRAS (ratio of KD value with respect to GDP-bound HRAS wild-type protein to KD value with respect to KRAS)” value [2, 7] was “B (a compound having 3 or more and less than 10 is denoted as B)”.

For `CCO[C@@H]1C[C@H]2C(=O)NC3(CC(C)(C)C3)C(=O)N(C)[C@@H](C(CC)CC)C(=O)N(C)[C@H](C(=O)N(C)C)CC(=O)N(C)[C@@H](CC)C(=O)N[C@@H]([C@@H](C)CC)C(=O)N(C)CC(=O)N(C)[C@H]3C/C=C\CCN(C3=O)[C@@H](Cc3ccc(C(F)(F)F)cc3)C(=O)N(C)CC(=O)N[C@@H](CCc3cc(F)c(C(F)(F)F)c(F)c3)C(=O)N2C1` [PP2062], the “NRAS/KRAS (ratio of KD value with respect to NRAS to KD value with respect to KRAS)” value [1, 5] was “AA (a compound having 20 or more is denoted as AA)” and the “HRAS/KRAS (ratio of KD value with respect to HRAS to KD value with respect to KRAS)” value [2, 6] was “A (a compound having 10 or more and less than 20 is denoted as A)”.

With `CCCO[C@@H]1C[C@H]2C(=O)NC3(CCC3)C(=O)N(C)[C@@H](C3CCCC3)C(=O)N(C)[C@H](C(=O)N3CCOCC3)CC(=O)N(C)[C@@H](COC)C(=O)N[C@@H]([C@@H](C)CC)C(=O)N(C)CC(=O)N(C)[C@H]3CCCCCN(C3=O)[C@@H](Cc3ccc(C(F)(F)F)cc3)C(=O)N(C)CC(=O)N[C@@H](CCc3cc(F)c(C(F)(F)F)c(F)c3)C(=O)N2C1` [PP0838] the “NRAS/KRAS (ratio of KD value with respect to NRAS to KD value with respect to KRAS)” value [1, 3] was “B (a compound having 3 or more and less than 10 is denoted as B)” and the “HRAS/KRAS (ratio of KD value with respect to HRAS to KD value with respect to KRAS)” value [2, 4] was “B (a compound having 3 or more and less than 10 is denoted as B)”.

With `CCO[C@@H]1C[C@H]2C(=O)NC3(CC(C)(C)C3)C(=O)N(C)[C@@H](C3CCCC3)C(=O)N(C)[C@H](C(=O)N(C)CC)CC(=O)N(C)[C@@H](COC)C(=O)N[C@@H]([C@@H](C)CC)C(=O)N(C)CC(=O)N(C)[C@H]3C/C=C\CCN(C3=O)[C@@H](Cc3ccc(C(F)(F)F)cc3)C(=O)N(C)CC(=O)N[C@@H](CCc3ccc(Cl)c(Cl)c3)C(=O)N2C1` [PP2835] the “NRAS/KRAS (ratio of KD value with respect to GDP-bound NRAS wild-type protein to KD value with respect to KRAS)” value ([1]; class symbols) was “A (a compound having 10 or more and less than 20 is denoted as A)” and the “HRAS/KRAS (ratio of KD value with respect to GDP-bound HRAS wild-type protein to KD value with respect to KRAS)” value ([2]; class symbols) was “A (a compound having 10 or more and less than 20 is denoted as A)”.

For `CCOC[C@H]1C(=O)N[C@@H]([C@@H](C)CC)C(=O)N(C)CC(=O)N(C)[C@H]2C/C=C\CCN(C2=O)[C@@H](Cc2ccc(C(F)(F)F)cc2)C(=O)N(C)CC(=O)N[C@@H](CCc2cc(F)c(C(F)(F)F)c(F)c2)C(=O)N2C[C@H](OCC)C[C@H]2C(=O)NC2(CC(C)(C)C2)C(=O)N(C)[C@@H](CC2CCC2)C(=O)N(C)[C@H](C(=O)N(C)C)CC(=O)N1C` [PP2763], the “NRAS/KRAS (ratio of KD value with respect to GDP-bound NRAS wild-type protein to KD value with respect to KRAS)” value ([1]; class symbols) was “A (a compound having 10 or more and less than 20 is denoted as A)” and the “HRAS/KRAS (ratio of KD value with respect to GDP-bound HRAS wild-type protein to KD value with respect to KRAS)” value ([2]; class symbols) was “A (a compound having 10 or more and less than 20 is denoted as A)”.

In the case of `CC[C@H](C)[C@@H]1NC(=O)[C@H](CC)N(C)C(=O)C[C@@H](C(=O)N(C)C)N(C)C(=O)[C@H](C2CCCC2)N(C)C(=O)C2(CC(C)(C)C2)NC(=O)[C@@H]2C[C@H](C)CN2C(=O)[C@H](CCc2ccc(C(F)(F)F)c(OC)c2)NC(=O)CN(C)C(=O)[C@H](Cc2ccc(C)cc2)N2CC/C=C\C[C@@H](C2=O)N(C)C(=O)CN(C)C1=O` [PP1836], the “NRAS/KRAS (ratio of KD value for NRAS to KD value for KRAS)” value [1, 3] is reported as “A (a compound having 10 or more and less than 20 is denoted as A)” and the “HRAS/KRAS (ratio of KD value for HRAS to KD value for KRAS)” value [2, 4] is reported as “B (a compound having 3 or more and less than 10 is denoted as B)”.

For `CCOC[C@H]1C(=O)N[C@@H]([C@@H](C)CC)C(=O)N(C)CC(=O)N(C)[C@H]2C/C=C\CCN(C2=O)[C@@H](CC2CCCCC2)C(=O)N(C)CC(=O)N[C@@H](CCc2ccc(C(F)(F)F)c(OC)c2)C(=O)N2C[C@H](OCC)C[C@H]2C(=O)NC2(CC(C)(C)C2)C(=O)N(C)[C@@H](C(CC)CC)C(=O)N(C)[C@H](C(=O)N(C)C)CC(=O)N1C` [PP2470], the “NRAS/KRAS (ratio of KD value with respect to NRAS to KD value with respect to KRAS)” value [1, 5] was “A (a compound having 10 or more and less than 20 is denoted as A)” and the “HRAS/KRAS (ratio of KD value with respect to HRAS to KD value with respect to KRAS)” value [2, 6] was “A (a compound having 10 or more and less than 20 is denoted as A)”.
